Several values for one entry are separate records, joined by “and”; a condition that tells them apart may be missing. Equal values may be shown once. Where a name gives a salt, the structure may show the parent alone. Read-outs that look alike come from different tables or passages of the source.
Legend:
gastric-acid secretion = test: Test of Inhibition of Gastric-Acid Secretion by Histamine Stimulation; format: in vivo, Male SD rats; settings: rat
Protocol: Test of Inhibition of Gastric-Acid Secretion by Histamine Stimulation
A feeding tube (fr. 3.5) for injecting test medicines was inserted into the duodenum, and the pylorus was ligatured. A polyethylene tube (inner diameter: 7 mm) was used in the anterior stomach and gastric fistula was performed. After washing the inside of the stomach with heated physiological salt solution (37° C.) several times, the body was closed. A tube with a fin was inserted into the caudal vein and was fastened with a tape and it was connected to a infusion pump (Harvard). The rats were enclosed in a KN Ballman II cage (Natsume Seisakusho). Gastric juice flowed from the fistula was collected with a messcylinder every one hour. Starting from one hour after the operation, histamine was continuously injected at a rate of 1.4 ml/hour through the caudal vein. Then, test compounds suspended in 0.5% sodium caboxy methyl cellulose (Na-CMC) were administered one hour after the start of the histamine injection. The gastric juice thus extracted in a period from one hour after the administration of the chemical to four hours after that was titrated by using an automatic titration apparatus (Kyoto Electronic) with 0.1N NaOH to adjust pH 7, and the quantity of the gastric juice was measured to obtain the total acid output.

[1] = test system: carrageenin plantar edema; test: Test of Carrageenin Plantar Edema; format: in vivo, Male Wistar rats; settings: for inhibition rate at the peak compared with that of indomethacin: 84.0 μmol/kg; for inhibition rate at the peak compared with that of indomethacin / ED50 value relative to that of indomethacin: compared with indomethacin; for ED50: read-out: Carrageenin edema ED50
Protocol: Test of Carrageenin Plantar Edema
After the body weight of each rat had been measured, the volume of the right hind-leg of the rat was measured by using an apparatus for measuring plantar volumes. The rats were then divided into groups so that the groups have the same body weight average and plantar volume average. A test compound was suspended in an aqueous solution of 5% tragacanth gum and then orally administered to each of the rats. 0.1 ml of a physiological saline of 1% carrageenin was hypodarmically injected into the sole of the right hind-leg of each rat. The volume was measured for each rat every 1 hour for 5 hours. An edema rate was determined by using a rate of increase in the volume measured after treatment to the volume measured before treatment.

gastric mucosa = test: Test of Injury to Gastric Mucosa; format: in vivo, Male Wistar rats; design: key to Ulcer Index: ulcer index determined by the Munchow method; settings: oral, rat; for Ulcer Index / Ulcer occurrence (%): 5 hours; for degree of injury to the gastric mucosa: as compared with indomethacin
Protocol: Test of Injury to Gastric Mucosa
Male Wistar rats each having a body weight of about 180 to 200 g were divided into groups consisting of 10 rats and were fasted for 24 hours. After body weight of each rat has been measured, a test compound was suspended in an aqueous solution of 5% tragacanth gum and then orally administered to each rat. The rats were fasted again, and after 5 hours had passed, they were killed by cervical dislocation. A 1% formalin solution was injected into the gastric cavity of each of the rats so that it was semifixed. The gaster of each rat was cut along the greater curvature of the stomach, and the ulcer index of each rat was measured under a stereoscopic microscope and determined by the Munchow method. The Mann-Whitney U-test was applied to the statistic data processing.

ICR male mice = test: Acute Toxicity Test; format: in vivo; settings: oral, single dose 25, 50 and 75 mg/kg each
Protocol: A test compound was suspended in an aqueous solution of 5% gum arabic and then orally administered to each of 4 to 5-week old ICR male mice (Charles River Co., Ltd.) each having a body weight of 22 to 30 g in each group consisting of 3 to 4 mice, once in each of doses 25, 50, 75, 200 and 500 mg/kg.

[2] = oral, rat, dose 8.4 μmol/kg (Example 2 6.4, Example 5 6.9, indomethacin 3.0 mg/kg)
[3] = oral, rat, dose 84.0 μmol/kg (Example 2 64.0, Example 5 69.0, indomethacin 30.0 mg/kg)
[4] = dose 25.2 μmol/kg (Example 2 19.2 mg/kg)
[5] = dose 84.0 μmol/kg (Example 2 64.0, Example 5 69.0, indomethacin 30.0 mg/kg)
[6] = dose 84.0 μmol/kg (Example 2 64.0, Example 5 69.0, indomethacin 30.0 mg/kg), ** p < 0.01
[7] = oral, rat, dose 28.0 μmol/kg (Example 5 23.0, indomethacin 10.0 mg/kg)
[8] = dose 28.0 μmol/kg (Example 5 23.0, indomethacin 10.0 mg/kg)
[9] = dose 28.0 μmol/kg (Example 5 23.0, indomethacin 10.0 mg/kg), ** p < 0.01

Row | SMILES | inhibition rate at the peak compared with that of indomethacin ([1]; oral, rat) | Carrageenin edema inhibition (%) rate at peak [1, 2] [%] | Carrageenin edema inhibition (%) rate at peak [1, 3] [%] | ED50 value relative to that of indomethacin ([1]; oral, rat) | ED50 ([1]; oral, rat) | Ulcer occurrence (%) (gastric mucosa; [5]) | Ulcer Index (gastric mucosa; [6]) | degree of injury to the gastric mucosa (gastric mucosa) | Carrageenin edema inhibition (%) rate at peak [1, 7] [%] | Ulcer occurrence (%) (gastric mucosa; [8]) | Ulcer Index (gastric mucosa; [9]) | further results
1 | CN/C(=N/CCSCc1nc[nH]c1C)NC#N [Cimetidine, reference compound] |  |  |  |  |  |  |  |  |  |  |  | Gastric-acid secretion inhibition rate (%) (gastric-acid secretion; dose 30 mg/kg): 32.3%
2 | COc1ccc2c(c1)c(CC(=O)OCC(=O)NCCCOc1cccc(CN3CCCCC3)c1)c(C)n2C(=O)c1ccc(Cl)cc1 [Example 2, N-[3-[3-(piperidinomethyl)phenoxy]propyl]carbamoylmethyl 1-(4-chlorobenzoyl)-5-methoxy-2-methyl-3-indolylacetate maleate] | slightly higher | 34.9 | 62.6 | substantially the same | 27.8 µmol/kg and 21.1 mg/kg | 14 | 5.9 ± 4.92 | extremely low degree of injury |  |  |  | Carrageenin edema inhibition (%) rate at peak ([1]; oral, rat, dose 25.2 μmol/kg (Example 2 19.2 mg/kg)): 50.4%; Ulcer Index (gastric mucosa; [4]): 1.3 ± 0.63; Ulcer occurrence (%) (gastric mucosa; [4]): 0%; Ulcer occurrence (%) (gastric mucosa; dose 251.9 μmol/kg (Example 2 192.0 mg/kg)): 40%; Ulcer Index (gastric mucosa; dose 251.9 μmol/kg (Example 2 192.0 mg/kg), * p < 0.05): 17.5 ± 15.84
3 | COc1ccc2c(c1)c(CC(=O)OCCSCC(=O)NCCCOc1cccc(CN3CCCCC3)c1)c(C)n2C(=O)c1ccc(Cl)cc1 [Example 5, 2-[N-[3-[3-(piperidinomethyl)phenoxy]propyl]carbamoylmethylthio]ethyl 1-(4-chlorobenzoyl)-5-methoxy-2-methyl-3-indolylacetate maleate] | slightly higher | 19.1 | 68.4 | about 2 times | 47.8 µmol/kg and 39.3 mg/kg | 0 | 0.0 ± 0.00 | extremely low degree of injury | 41.2 | 0 | 0.1 ± 0.01 | Carrageenin edema inhibition (%) rate at peak ([1]; oral, rat, dose 280.0 μmol/kg (Example 5 230.0 mg/kg)): 72.7%; Ulcer Index (gastric mucosa; dose 280.0 μmol/kg (Example 5 230.0 mg/kg)): 0.0 ± 0.00; Gastric-acid secretion inhibition rate (%) (gastric-acid secretion; dose 22 mg/kg): 47.4%; Gastric-acid secretion inhibition rate (%) (gastric-acid secretion; dose 44 mg/kg): 74.1%
4 | COc1ccc2c(c1)c(CC(=O)O)c(C)n2C(=O)c1ccc(Cl)cc1 [Indomethacin, indomethacin, reference compound] |  | 49.8 | 55.9 |  |  | 80 | 62.1 ± 16.50 |  | 59.4 | 70 | 46.5 ± 15.00 | ED50 ([1]; Rattus norvegicus, po): 20.6 µmol/kg and 7.4 mg/kg; Carrageenin edema inhibition (%) rate at peak ([1]; oral, rat, dose 2.8 μmol/kg (indomethacin 1.0 mg/kg)): 24.6%; Ulcer occurrence (%) (gastric mucosa; dose 56.0 μmol/kg (indomethacin 20.0 mg/kg)): 70%; Ulcer Index (gastric mucosa; dose 56.0 μmol/kg (indomethacin 20.0 mg/kg), ** p < 0.01): 52.8 ± 17.47; death of mice (ICR male mice): all the mice in the groups, to which 25, 50 and 75 mg/kg of indomethacin were respectively administered, died
